Reference: US20240150691A1, “BILE DUCT CHIP AND USE THEREOF” (Kyoto University, priority 2021, published 2024)

Experiments:
MRP2 = biological target: T1, MRP2 (Homo sapiens, UniProt Q92887); test: CDFDA transport assay; type: cell-based; details: 10 μM CDFDA in upper layer flow path, 3 hours, co-culturing with HuCCT1 cells versus PHH only
T1 construct: endogenous in cells; host or cells: primary human hepatocytes (PHH), alone or co-cultured with HuCCT1 cells, in the microfluidic device
Description: 10 μM of 5(6)-carboxy-2′,7′-dichlorofluorescein diacetate (CDFDA) was added to the upper layer flow path. After 3 hours, the culture supernatant from the lower layer flow path was recovered. The fluorescence intensity of 5(6)-carboxy-2′,7′-dichlorofluorescein (CDF) in the recovered culture supernatant, which is a metabolite of CDFDA, was measured.
Subsequently, 5(6)-carboxy-2′,7′-dichlorofluorescein diacetate (CDFDA) was added to the upper layer flow path of the intrahepatic bile duct chip, and after 3 hours, the fluorescence of the culture medium in the lower layer flow path was measured. In living cells, CDFDA is hydrolyzed to 5(6)-carboxy-2′,7′-dichlorofluorescein (CDF). CDF is a substrate of MRP2, which is a transporter. Therefore, the CDF transported to the lower layer flow path can be quantified by measuring the fluorescence intensity.
FIG. 13 is a graph showing results of measuring the fluorescence intensity.

CYP3A4 = test: Measurement of CYP activity using CYP substrates in PHH (MDZ to 1OH-MDZ); type: in vitro ADME, human
Description: The LC-MS/MS analysis was carried out to measure the activity of CYP. Prior to a CYP substrate treatment, PHH was cultured in DMEM containing 10 mM HEPES for 30 minutes. Subsequently, the PHH was cultured in a culture medium containing 5 μM MDZ (the metabolite thereof is 1OH-MDZ), 50 μM MPHT (the metabolite thereof is 4OH-MPHT), 5 μM DIC (the metabolite thereof is 4OH-DIC), 10 μM BUF (the metabolite thereof is 1OH-BUF), or 50 μM PHE (the metabolite thereof is APAP). The supernatant was recovered 1, 2, and 4 hours after the treatment with the substrate. At the time of recovering the supernatant, an equal amount of a culture medium containing the substrate was added.
The recovered supernatant was mixed with acetonitrile (FUJIFILM Wako Pure Chemical Corporation) containing an equal volume of 5 μM propranolol (internal standard). The specimen was filtered through a Cosmonice Filter W (Nacalai Tesque, Inc.) having a pore size of 0.45 μm, the supernatant was subsequently analyzed by LC-MS/MS, and the concentration of the metabolite was measured based on the standard curve. The LC-MS/MS analysis was carried out using LCMS-8040 (Shimadzu Corporation).
Subsequently, the drug metabolic activities of the PHH cultured in the PDMS device and the PS plate were compared. First, PHH was treated with each of MDZ, DIC, PHE, BUF, and MPHT, which are substrates of CYP3A4, CYP2C9, CYP1A2, CYP2D6, and CYP2C19. Subsequently, after 1, 2, and 4 hours, the amounts of the metabolites (OH-MDZ, 4OH-DIC, APAP, 1OH-BUF, and 4OH-MPHT) generated in the culture medium were measured by LC-MS/MS.

[1] = Drug absorption in microfluidic device without PHH (LC-MS/MS); type: physicochemical; details: for concentration during the observation period: 1 to 4 hours, microfluidic device; for Drug absorption rate: Microfluidic device/Polystyrene plate; for Drug absorption rate / concentration as % of initial concentration: without PHH; for absorption in the microfluidic device: PDMS device without PHH; for concentration as % of initial concentration: 1 hour after the injection into the microfluidic device
Description: (§1) A culture medium containing MDZ, DIC, PHE, BUF, or MPHT was added to a microfluidic device or a polystyrene plate. Subsequently, 1, 2, and 4 hours after the addition of the drugs, the amounts of these drugs were quantified with LC-MS/MS.
as §1, with “APAP (a CYP1A2 metabolite), 1OH-MDZ (a CYP3A4 metabolite), 4OH-DIC (a CYP2C9 metabolite), 4OH-MPHT (a CYP2C19 metabolite),” for “MDZ, DIC, PHE, BUF,”, “1OH-BUF (a CYP2D6 metabolite)” for “MPHT”
Subsequently, it was examined whether the absorption of the drugs and metabolites could be predicted by the relative physicochemical characteristics between the microfluidic device and the polystyrene plate. The drug absorption rate between the microfluidic device and the polystyrene plate was calculated. Subsequently, a correlation coefficient R^2 value between the drug absorption rate and the physicochemical characteristics (DiffCoef, M Log P, S+Log P, S+log D, MWt, and tPSA) of the drugs was calculated.

CYP3A = type: in vitro ADME, human
Description: The supernatant was recovered 1, 2, and 4 hours after the treatment with the substrate. At the time of recovering the supernatant, an equal volume of a culture medium containing the substrate was added.
A fraction (20 μL) of the recovered supernatant was mixed with 20 μL of Milli-Q water and 120 μL of acetonitrile containing […] 10 nM of an internal standard (fluvastatin, FUJIFILM Wako Pure Chemical Corporation). After centrifugation, 100 μL of the supernatant was analyzed by LC-MS/MS.
Chromatography was carried out using a Nexera X2 LC system (Shimadzu Corporation), and quantification was carried out using QTRAP 5500+ (AB Sciex LLC).
A mass spectrometer was set to an MRM mode and operated with an electrospray ionization source.

FXR = test: Change in bile acid signaling upon drug exposure in PHH (quantitative RT-PCR); details: 100 μM CDCA and 2.5 μM GW4046, 72 hours, PHH in microfluidic device or polystyrene plate
Description: Subsequently, a change in bile acid signaling upon drug exposure was examined.
Subsequently, the gene expression levels of BSEP and CYP7A1 were measured by quantitative RT-PCR.

[2] = test system: PHH and the HuCCT1 cells of the intrahepatic bile duct chip; test: Response to bile acid signaling in intrahepatic bile duct chip (quantitative RT-PCR); type: cell-based, human; details: 100 μM CDCA, 72 hours, versus DMSO
Description: In addition, the response to bile acid signaling in PHH was examined. Chenodeoxycholic acid (CDCA) is one of the major bile acids. […] In addition, a specimen treated with dimethyl sulfoxide (DMSO) instead of CDCA was also prepared for comparison. Subsequently, the gene expression levels of BSEP, NTCP, and CYP7A1 were measured according to quantitative RT-PCR. […] In FIG. 9, the vertical axis indicates a relative value of the expression level of each gene in a case where the expression level in a case where DMSO has been treated is set to 1. […] All data are indicated as average value±standard deviation (n=3).

CYP1A2 = test: CYP induction test (quantitative RT-PCR) in PHH; type: cell-based, human; details: 50 μM omeprazole, 48 hours, versus DMSO
Description: (§2) PHH was treated with 50 μM omeprazole, 500 μM phenobarbital, or 20 μM rifampicin (all of which are from FUJIFILM Wako Pure Chemical Corporation) for 48 hours. Each of these drugs is known to induce CYP1A2, 2B6, and 3A4. In order to measure the inducibility of CYP1A2, 2B6, and 3A4, the expression level of CYP was measured by quantitative RT-PCR. The expression level of the target gene was standardized with the expression level of GAPDH. The inducibility was calculated as a change in expression level in terms of folds in cells treated with DMSO.
(§3) PHH was seeded in each of a microfluidic device and a polystyrene plate and cultured for 24 hours. Subsequently, the cultured PHH was treated with 50 μM omeprazole, 500 μM phenobarbital, or […] rifampicin for 48 hours. […] Subsequently, the expression level of each CYP gene was measured by quantitative RT-PCR. Cells treated with DMSO (final concentration: 0.1%) were used as a control.

CYP2B6 = test: CYP induction test (quantitative RT-PCR) in PHH; details: 500 μM phenobarbital, 48 hours, versus DMSO
Description: as §2, §3

[3] = test system: GFP-expressing HuCCT1 cells; test: Formation of tubular bile duct-like structure in microfluidic device; type: cell-based, human; details: 10 ng/mL in culture medium, 4 days, lower layer flow path
Description: GFP-expressing HuCCT1 cells were seeded in the lower layer flow path of the microfluidic device in the presence or absence of 10 ng/mL of DLL1 or DLL4, and after 4 days, a cross-sectional image of the microfluidic device was acquired.

PHH = test: Fibrosis marker gene expression in PHH treated with TGF-β1 (quantitative RT-PCR); type: cell-based, human
Description: (§4) Subsequently, the cellular response of the PHH cultured in the microfluidic device and the polystyrene plate to a recombinant protein was examined. Specifically, PHH was treated with transforming growth factor-β1 (TGF-β1), which is one of the causative factors of hepatic fibrosis. The PHH was exposed to 100 ng/mL TGF-β1 for 48 hours. Subsequently, the amount of TGF-β1 in the cell culture supernatant was measured according to ELISA.
Subsequently, the gene expression levels of ACTA2, COL1A1, and TIMP1, which are fibrosis markers, were measured by quantitative RT-PCR.
In FIG. 36, the vertical axis indicates a relative value in a case where the gene expression level in the cells (control) treated with phosphate buffered saline (PBS) is set to 1. […] The data is indicated as average value±standard deviation (n=3).
Subsequently, the gene expression level of TGF-β type II receptor (TGFBR2) was measured. […] Subsequently, the gene expression level of TGFBR2 was measured by quantitative RT-PCR.

[4] = Measurement of active TGF-β1 in culture supernatant (ELISA), adsorption to culture vessel; details: 100 ng/mL TGF-β1, 48 hours
Description: PHH was treated with 100 ng/mL of TGF-β1 for 48 hours. In order to quantify active TGF-β1 in the supernatant, the culture medium was recovered and analyzed according to the instruction manual using a TGF beta-1 Human ELISA Kit (BMS249-4, Thermo Fisher Scientific, Inc.). The amount of active TGF-β1 was calculated based on each standard.
as §4
FIG. 35 is a graph showing the results of ELISA. In FIG. 35, “top” indicates the results for the upper layer flow path, and “bottom” indicates the results for the lower layer flow path.

[5] = microfluidic device versus polystyrene plate
[6] = 100 ng/mL TGF-β1, 48 hours, microfluidic device or polystyrene plate, versus PBS

T1 sequence (Q92887 whole entry): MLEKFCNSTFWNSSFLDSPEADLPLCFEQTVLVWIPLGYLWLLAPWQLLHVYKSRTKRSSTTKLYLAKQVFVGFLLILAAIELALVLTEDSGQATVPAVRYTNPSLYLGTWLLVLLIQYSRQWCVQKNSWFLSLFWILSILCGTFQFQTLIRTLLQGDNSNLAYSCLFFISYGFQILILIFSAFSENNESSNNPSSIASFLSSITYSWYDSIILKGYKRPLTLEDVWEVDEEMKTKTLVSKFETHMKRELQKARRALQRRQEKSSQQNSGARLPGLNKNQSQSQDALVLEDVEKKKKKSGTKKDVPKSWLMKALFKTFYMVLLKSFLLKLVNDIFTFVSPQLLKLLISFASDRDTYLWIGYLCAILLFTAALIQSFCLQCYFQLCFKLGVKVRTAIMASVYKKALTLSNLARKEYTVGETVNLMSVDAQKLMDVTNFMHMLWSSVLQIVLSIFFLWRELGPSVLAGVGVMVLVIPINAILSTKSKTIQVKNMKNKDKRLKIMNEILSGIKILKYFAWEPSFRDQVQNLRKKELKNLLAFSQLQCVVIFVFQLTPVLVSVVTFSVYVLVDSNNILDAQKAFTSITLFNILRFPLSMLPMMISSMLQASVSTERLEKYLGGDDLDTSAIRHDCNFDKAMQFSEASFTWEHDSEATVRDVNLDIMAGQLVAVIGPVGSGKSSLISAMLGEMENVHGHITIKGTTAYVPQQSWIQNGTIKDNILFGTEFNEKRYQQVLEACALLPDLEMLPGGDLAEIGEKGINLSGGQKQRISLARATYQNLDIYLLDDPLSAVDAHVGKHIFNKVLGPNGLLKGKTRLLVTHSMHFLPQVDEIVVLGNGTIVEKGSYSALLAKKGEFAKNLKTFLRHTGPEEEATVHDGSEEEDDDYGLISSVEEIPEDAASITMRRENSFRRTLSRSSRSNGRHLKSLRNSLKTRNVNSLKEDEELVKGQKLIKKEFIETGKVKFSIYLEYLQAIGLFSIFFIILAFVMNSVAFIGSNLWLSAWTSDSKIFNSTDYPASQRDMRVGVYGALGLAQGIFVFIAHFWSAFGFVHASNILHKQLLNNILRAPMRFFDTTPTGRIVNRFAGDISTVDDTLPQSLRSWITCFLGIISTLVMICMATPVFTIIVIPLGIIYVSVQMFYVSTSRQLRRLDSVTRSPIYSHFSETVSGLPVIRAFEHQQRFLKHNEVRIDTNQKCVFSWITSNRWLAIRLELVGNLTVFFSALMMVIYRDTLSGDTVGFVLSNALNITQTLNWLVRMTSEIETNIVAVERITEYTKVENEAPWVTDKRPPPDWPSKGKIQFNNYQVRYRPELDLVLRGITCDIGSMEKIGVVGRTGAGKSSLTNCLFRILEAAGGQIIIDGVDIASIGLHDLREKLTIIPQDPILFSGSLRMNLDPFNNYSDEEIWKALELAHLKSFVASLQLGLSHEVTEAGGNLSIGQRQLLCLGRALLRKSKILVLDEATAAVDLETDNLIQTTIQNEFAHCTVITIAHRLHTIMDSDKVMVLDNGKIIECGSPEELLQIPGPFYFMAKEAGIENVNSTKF

5(6)-carboxy-2′,7′-dichlorofluorescein [CDF]
amount of the CDF transported to the lower layer flow path (MRP2): increases

OCc1ncc2n1-c1ccc(Cl)cc1C(c1ccccc1F)=NC2 [1-hydroxymidazolam]
formation rate of metabolite, microfluidic device versus polystyrene plate (CYP3A4; PHH, 5 μM MDZ): similar | concentration during the observation period [1]: constant | Drug absorption rate [1]: 1.714 | absorption in the microfluidic device [1]: also absorbed in the PDMS device

CC(C)c1c(C(=O)Nc2ccccc2O)c(-c2ccccc2)c(-c2ccc(F)cc2)n1CCC(O)CC(O)CC(=O)O (centres unmarked) [2OH-ATV, 2-hydroxyatorvastatin]
formation of 2OH-ATV (CYP3A; PHH, 1 μM ATV, 1, 2 and 4 hours): observed in a time-dependent manner | formation rate of 2OH-ATV in PHH cultured in the microfluidic device (CYP3A; [5]): partially reduced

CCc1cccc2cc(C(O)CNC(C)(C)C)oc12 (centres unmarked) [Bufuralol, bufuralol]
concentration during the observation period [1]: constant | concentration as % of initial concentration [1]: 30% | Drug absorption rate [1]: 3.327 | absorption in the microfluidic device [1]: absorbed in the microfluidic device

C[C@H](CCC(=O)O)[C@H]1CC[C@H]2[C@@H]3[C@H](O)C[C@@H]4C[C@H](O)CC[C@]4(C)[C@H]3CC[C@]12C [CDCA, chenodeoxycholic acid]
CYP7A1 gene expression level (FXR): decreased only in the microfluidic device | BSEP gene expression level [2]: increased | CYP7A1 gene expression level [2]: decreased | NTCP gene expression level [2]: increased

O=C(O)Cc1ccccc1Nc1c(Cl)cccc1Cl [Diclofenac, diclofenac]
Drug absorption rate [1]: 1.043

CC(C)c1onc(-c2c(Cl)cccc2Cl)c1COc1ccc(/C=C/c2cccc(C(=O)O)c2)c(Cl)c1 [GW4046]
BSEP gene expression level (FXR): increased in both the PHH cultured in the microfluidic device and the PHH cultured on the polystyrene plate

Cc1ncc2n1-c1ccc(Cl)cc1C(c1ccccc1F)=NC2 [Midazolam, midazolam]
amount of the metabolite, microfluidic device versus polystyrene plate (CYP3A4; PHH, 5 μM MDZ): smaller | clearance (rate of drug metabolite formation divided by concentration of the drug in the culture medium) (CYP3A4; [5]): no difference | concentration during the observation period [1]: constant | concentration as % of initial concentration [1]: 9.5% | Drug absorption rate [1]: 10.41 | absorption in the microfluidic device [1]: absorbed in the microfluidic device

CCOc1ccc(NC(C)=O)cc1 [Phenacetin, phenacetin]
Drug absorption rate [1]: 0.9569

CC[C@@]1(c2ccccc2)NC(=O)N(C)C1=O [S-mephenytoin]
Drug absorption rate [1]: 0.9897

CCCC(C(=O)OCCN(CC)CC)(c1ccccc1)c1ccccc1 [SKF-525A]
formation of 2OH-ATV on treatment with pan-CYP inhibitor (CYP3A; PHH, 100 μM SKF-525A, 1 μM ATV): significantly reduced

COc1ccc2[nH]c([S+]([O-])Cc3ncc(C)c(OC)c3C)nc2c1 (centres unmarked) [omeprazole]
CYP1A2 expression level (CYP1A2): induced in both the microfluidic device and the polystyrene plate

CCC1(c2ccccc2)C(=O)NC(=O)NC1=O [phenobarbital]
CYP2B6 expression level (CYP2B6): induced in both the microfluidic device and the polystyrene plate

DLL4: recombinant human Delta Like Canonical Notch Ligand 4, lumenization factor
formation of the tubular bile duct-like structure [3]: accelerates the formation of the tubular bile duct-like structure

TGF-β1: recombinant protein, one of the causative factors of hepatic fibrosis
ACTA2 gene expression level (PHH; [6]): increased | COL1A1 gene expression level (PHH; [6]): increased | TIMP1 gene expression level (PHH; [6]): increased | TGFBR2 gene expression level (PHH; TGF-β1 treatment, PHH in microfluidic device and polystyrene plate): not changed | adsorption of TGF-β1 to the microfluidic device [4]: has not allowed the adsorption | adsorption of TGF-β1 to the polystyrene plate [4]: allowed the adsorption
